Data published in PubChem BioAssay AID330 (DTP/NCI, 2004).
Values joined by “and” are separate entries in the source; they are usually repeats but may differ in a detail not shown here. Equal entries are not always repeated. Toxic doses and inconclusive results are not listed.

Test system: P388 leukemia ip, CD2F1 mice, survival T/C
Experiment: NCI In Vivo Anticancer Drug Screen. Data for tumor model P388 Leukemia (intraperitoneal) in CD2F1 (CDF1) mice
Conditions: endpoint: median survival time, higher = longer survival
Summary of the method: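 Mice carrying the transplanted tumor received test compound or vehicle. Survival was recorded in each group, and the value is the treated-group measurement divided by that of the vehicle-treated control group.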

[1] = dose: 60.0 mg/kg/injection, schedule: Q01DX005 (ip), vehicle: saline with Tween-80
[2] = dose: 120.0 mg/kg/injection, schedule: Q01DX005 (ip), vehicle: saline with Tween-80
[3] = dose: 240.0 mg/kg/injection, schedule: Q01DX005 (ip), vehicle: saline with Tween-80
[4] = dose: 8.75 mg/kg/injection, schedule: Q01DX005 (ip), vehicle: Klucel (hydroxypropylcellulose) (HPC)
[5] = dose: 17.5 mg/kg/injection, schedule: Q01DX005 (ip), vehicle: Klucel (hydroxypropylcellulose) (HPC)
[6] = dose: 35.0 mg/kg/injection, schedule: Q01DX005 (ip), vehicle: Klucel (hydroxypropylcellulose) (HPC)
[7] = dose: 6.25 mg/kg/injection, schedule: Q01DX009 (ip), vehicle: saline
[8] = dose: 50.0 mg/kg/injection, schedule: Q01DX009 (ip), vehicle: Klucel (hydroxypropylcellulose) (HPC)
[9] = dose: 100.0 mg/kg/injection, schedule: Q01DX009 (ip), vehicle: Klucel (hydroxypropylcellulose) (HPC)
[10] = dose: 200.0 mg/kg/injection, schedule: Q01DX009 (ip), vehicle: Klucel (hydroxypropylcellulose) (HPC)
[11] = dose: 50.0 mg/kg/injection, schedule: Q01DX005 (ip), vehicle: saline with Tween-80
[12] = dose: 100.0 mg/kg/injection, schedule: Q01DX005 (ip), vehicle: saline with Tween-80
[13] = dose: 200.0 mg/kg/injection, schedule: Q01DX005 (ip), vehicle: saline with Tween-80
[14] = dose: 50.0 mg/kg/injection, schedule: Q01DX005 (ip), vehicle: Klucel (hydroxypropylcellulose) (HPC)
[15] = dose: 12.5 mg/kg/injection, schedule: Q01DX009 (ip), vehicle: Klucel (hydroxypropylcellulose) (HPC)
[16] = dose: 25.0 mg/kg/injection, schedule: Q01DX009 (ip), vehicle: Klucel (hydroxypropylcellulose) (HPC)

## COc1cc(OC)c2cc(-n3nnc4cc([N+](=O)[O-])ccc43)c(=O)oc2c1
dose: 7.5 mg/kg/injection, schedule: Q01DX005 (ip), vehicle: saline with Tween-80
  T/C: 100 % of control
dose: 15.0 mg/kg/injection, schedule: Q01DX005 (ip), vehicle: saline with Tween-80
  T/C: 95 % of control
dose: 30.0 mg/kg/injection, schedule: Q01DX005 (ip), vehicle: saline with Tween-80
  T/C: 88 % of control
[1]
  T/C: 88 % of control

## CC([Se])=Nc1ccc(Br)cc1
dose: 12.5 mg/kg/injection, schedule: Q04DX003 (ip), vehicle: Klucel (hydroxypropylcellulose) (HPC)
  T/C: 100 % of control
dose: 25.0 mg/kg/injection, schedule: Q04DX003 (ip), vehicle: Klucel (hydroxypropylcellulose) (HPC)
  T/C: 100 % of control

## O=[N+]([O-])c1ccc(-c2nc3ccc(F)cc3[nH]2)o1
[1]
  T/C: 101 % of control
[2]
  T/C: 97 % of control
[3]
  T/C: 104 % of control

## O=C1C(=O)C2CC3(CC1N2Cc1ccccc1)OCCO3
[4]
  T/C: 109 % of control
[5]
  T/C: 104 % of control
[6]
  T/C: 110 % of control

## COC1=CC(C)C2CC3OC(O)CC4C(C)=C(OC)C(=O)C(C2(C)C1=O)C34C (stereo not drawn)
dose: 60.0 mg/kg/injection, schedule: Q01DX005 (ip), vehicle: Klucel (hydroxypropylcellulose) (HPC)
  T/C: 94 % of control
dose: 120.0 mg/kg/injection, schedule: Q01DX005 (ip), vehicle: Klucel (hydroxypropylcellulose) (HPC)
  T/C: 94 % of control
dose: 240.0 mg/kg/injection, schedule: Q01DX005 (ip), vehicle: Klucel (hydroxypropylcellulose) (HPC)
  T/C: 89 % of control

## [CH3][Sn]([CH3])([Cl])[S]CCN
dose: 0.78 mg/kg/injection, schedule: Q01DX009 (ip), vehicle: saline
  T/C: 99 % of control
dose: 1.56 mg/kg/injection, schedule: Q01DX009 (ip), vehicle: saline
  T/C: 105 % of control
dose: 3.12 mg/kg/injection, schedule: Q01DX009 (ip), vehicle: saline
  T/C: 123 % of control
[7]
  T/C: 120 % of control

## CSC(=Nc1cccc(C)c1)NC#N
[8]
  T/C: 103 % of control
[9]
  T/C: 106 % of control
[10]
  T/C: 105 % of control

## O=C1c2ccccc2C(=O)c2c(OCCOCCO)cccc21
[11]
  T/C: 118 % of control
[12]
  T/C: 112 % of control
[13]
  T/C: 96 % of control

## O=[N+]([O-])c1cccc(C2=NON(c3ccccn3)C3C=CC=CN23)c1 (stereo not drawn)
[1]
  T/C: 94 % of control
[2]
  T/C: 90 % of control
[3]
  T/C: 92 % of control

## C=C1CC2(CC3(C(C)C)CC3C2C)OC1=O (stereo not drawn)
dose: 100.0 mg/kg/injection, schedule: Q01DX001 (ip), vehicle: saline
  T/C: 100 % of control
dose: 200.0 mg/kg/injection, schedule: Q01DX001 (ip), vehicle: saline
  T/C: 99 % of control
dose: 400.0 mg/kg/injection, schedule: Q01DX001 (ip), vehicle: saline
  T/C: 110 % of control

## Clc1ccc(NC2=NCCS2)cc1Cl
[8]
  T/C: 103 % of control
[9]
  T/C: 92 % of control
[10]
  T/C: 101 % of control

## CCOC(=O)c1ccc(NC(=O)Nc2nccs2)cc1
dose: 200.0 mg/kg/injection, schedule: Q01DX009 (ip), vehicle: saline with Tween-80
  T/C: 162 % of control
dose: 400.0 mg/kg/injection, schedule: Q01DX009 (ip), vehicle: saline with Tween-80
  T/C: 92 % of control

## O[C@H]1CCN2CO[C@@H](c3ccccc3)C[C@H]2C1
dose: 12.5 mg/kg/injection, schedule: Q01DX005 (ip), vehicle: Klucel (hydroxypropylcellulose) (HPC)
  T/C: 102 % of control
dose: 25.0 mg/kg/injection, schedule: Q01DX005 (ip), vehicle: Klucel (hydroxypropylcellulose) (HPC)
  T/C: 103 % of control
[14]
  T/C: 102 % of control

## COCCCCCC(=O)OC
dose: 60.0 mg/kg/injection, schedule: Q01DX005 (ip), vehicle: saline
  T/C: 101 % of control
dose: 120.0 mg/kg/injection, schedule: Q01DX005 (ip), vehicle: saline
  T/C: 100 % of control
dose: 240.0 mg/kg/injection, schedule: Q01DX005 (ip), vehicle: saline
  T/C: 104 % of control

## O=[N+]([O-])c1cccc(OCCOc2ccccc2)c1
dose: 100.0 mg/kg/injection, schedule: Q01DX009 (ip), vehicle: other
  T/C: 110 % of control
dose: 200.0 mg/kg/injection, schedule: Q01DX009 (ip), vehicle: other
  T/C: 105 % of control

## C=C(C)C(=NC(C)(C)C)Nc1ccccc1
dose: 10.0 mg/kg/injection, schedule: Q01DX005 (ip), vehicle: saline
  T/C: 119 % of control
[15]
  T/C: 121 % of control
dose: 12.5 mg/kg/injection, schedule: Q01DX009 (ip), vehicle: saline with Tween-80
  T/C: 116 % of control
[16]
  T/C: 106 % of control
[8]
  T/C: 107 % of control
dose: 100.0 mg/kg/injection, schedule: Q01DX005 (ip), vehicle: saline
  T/C: 152 % of control
[9]
  T/C: 107 % of control

## Cc1nc2c(cnn2C)c(=O)n1C
[14]
  T/C: 111 % of control
dose: 100.0 mg/kg/injection, schedule: Q01DX005 (ip), vehicle: Klucel (hydroxypropylcellulose) (HPC)
  T/C: 111 % of control
dose: 200.0 mg/kg/injection, schedule: Q01DX005 (ip), vehicle: Klucel (hydroxypropylcellulose) (HPC)
  T/C: 111 % of control

## Clc1ccc2c(N3CCC(CCC4CCN(c5ncnc6cc(Cl)ccc56)CC4)CC3)ncnc2c1
[11]
  T/C: 96 % of control
[12]
  T/C: 94 % of control
[13]
  T/C: 88 % of control

## O=C1CSC(c2cccc(F)c2)N1c1nncs1 (stereo not drawn)
[1]
  T/C: 98 % of control
[2]
  T/C: 105 % of control
[3]
  T/C: 106 % of control

## Clc1c2ccccc2nc2ccccc12
[11]
  T/C: 98 % of control
[12]
  T/C: 91 % of control
[13]
  T/C: 98 % of control

## CNC(=O)OCc1nn(-c2ccccc2)c(C)c1COC(=O)NC
dose: 12.5 mg/kg/injection, schedule: Q01DX009 (ip), vehicle: distilled water + Tween-80
  T/C: 97 % of control
dose: 25.0 mg/kg/injection, schedule: Q01DX009 (ip), vehicle: distilled water + Tween-80
  T/C: 97 % of control
dose: 50.0 mg/kg/injection, schedule: Q01DX009 (ip), vehicle: distilled water + Tween-80
  T/C: 97 % of control
dose: 100.0 mg/kg/injection, schedule: Q01DX009 (ip), vehicle: distilled water + Tween-80
  T/C: 92 % of control
dose: 200.0 mg/kg/injection, schedule: Q01DX009 (ip), vehicle: distilled water + Tween-80
  T/C: 92 % of control

## NC(=O)CCC(N)C(=O)O.[Cl-].[Cl-].[Cl-].[Cl-].[Pt+2] (stereo not drawn)
[7]
  T/C: 107 % of control
dose: 6.25 mg/kg/injection, schedule: Q01DX009 (ip), vehicle: water
  T/C: 153 % of control
dose: 11.0 mg/kg/injection, schedule: Q01DX009 (ip), vehicle: saline
  T/C: 106 % of control
dose: 12.5 mg/kg/injection, schedule: Q01DX009 (ip), vehicle: saline
  T/C: 110 % of control
dose: 12.5 mg/kg/injection, schedule: Q01DX009 (ip), vehicle: water
  T/C: 154 % of control and 155 % of control
dose: 25.0 mg/kg/injection, schedule: Q01DX009 (ip), vehicle: water
  T/C: 155 % of control
dose: 37.5 mg/kg/injection, schedule: Q01DX009 (ip), vehicle: saline
  T/C: 157 % of control
dose: 50.0 mg/kg/injection, schedule: Q01DX009 (ip), vehicle: saline
  T/C: 152 % of control

## O=C(O)c1cccc(O)c1O
dose: 100.0 mg/kg/injection, schedule: Q01DX009 (ip), vehicle: saline
  T/C: 101 % of control and 104 % of control
dose: 200.0 mg/kg/injection, schedule: Q01DX009 (ip), vehicle: saline
  T/C: 89 % of control and 96 % of control
dose: 600.0 mg/kg/injection, schedule: Q01DX009 (ip), vehicle: saline
  T/C: 101 % of control and 89 % of control

## COC(=O)CCc1cc(=O)oc2c(I)c(O)cc(O)c12
[4]
  T/C: 99 % of control
[5]
  T/C: 93 % of control
[6]
  T/C: 101 % of control

## c1ccc2c(c1)CCNC2C1NCCc2ccccc21 (stereo not drawn)
[15]
  T/C: 107 % of control
[16]
  T/C: 100 % of control
[8]
  T/C: 104 % of control
dose: 100.0 mg/kg/injection, schedule: Q01DX001 (ip), vehicle: Klucel (hydroxypropylcellulose) (HPC)
  T/C: 109 % of control
[9]
  T/C: 105 % of control and 91 % of control
dose: 200.0 mg/kg/injection, schedule: Q01DX001 (ip), vehicle: Klucel (hydroxypropylcellulose) (HPC)
  T/C: 107 % of control
